{
  "source": "patent US9670210B2",
  "about": "“Cyclopropylamines as LSD1 inhibitors” (Incyte Corporation, priority 2014, dated 2017)",
  "data": [
    {"target": "LSD-1 enzyme (Homo sapiens (Human), UniProt O60341)", "units": {"IC50": "nM"}, "procedure": "LSD1 Histone Demethylase Biochemical Assay\nLANCE LSD1/KDM1A demethylase assay-10 μL of 1 nM LSD-1 enzyme (ENZO BML-SE544-0050) in the assay buffer (50 mM Tris, pH 7.5, 0.01% Tween-20, 25 mM NaCl, 5 mM DTT) were preincubated for 1 hour at 25° C. with 0.8 μL compound/DMSO dotted in black 384 well polystyrene plates. […] After stopping the reactions plates were incubated for 30 minutes and read on a PHERAstar FS plate reader (BMG Labtech).", "values": [
      {"smiles": "O=C(O)C1(CN2CCC(CN[C@@H]3C[C@H]3c3ccccc3)(COCc3ccccc3)CC2)CCC1", "note": "[Example 73, 1-{[4-[(benzyloxy)methyl]-4-({[(1R,2S)-2-phenylcyclopropyl]amino}methyl)piperidin-1-yl]methyl}cyclobutanecarboxylic acid]", "IC50": "< 100"},
      {"smiles": "N#Cc1ccc(CC2(CN[C@@H]3C[C@H]3c3ccccc3)CCN(CC3(C(=O)O)CC3)CC2)c(F)c1", "note": "[Example 74, 1-{[4-(4-cyano-2-fluorobenzyl)-4-({[(1R,2S)-2-phenylcyclopropyl]amino}methyl)piperidin-1-yl]methyl}cyclopropanecarboxylic acid]", "IC50": "< 100"},
      {"smiles": "O=C(O)C1(CN2CCC(CN[C@@H]3C[C@H]3c3ccccc3)(COc3ccccc3F)CC2)CC1", "note": "[Example 75, 1-{[4-[(2-fluorophenoxy)methyl]-4-({[(1R,2S)-2-phenylcyclopropyl]amino}methyl)piperidin-1-yl]methyl}cyclopropanecarboxylic acid]", "IC50": "< 100"},
      {"smiles": "O=C(O)C1(CN2CCC(CN[C@@H]3C[C@H]3c3ccccc3)(COc3ccccc3F)CC2)CCC1", "note": "[Example 76, 1-{[4-[(2-fluorophenoxy)methyl]-4-({[(1R,2S)-2-phenylcyclopropyl]amino}methyl)piperidin-1-yl]methyl}cyclobutanecarboxylic acid]", "IC50": "< 100"},
      {"smiles": "O=C(O)C1(CN2CCC(CN[C@@H]3C[C@H]3c3ccccc3)(COc3cccc(F)c3)CC2)CC1", "note": "[Example 77, 1-{[4-[(3-fluorophenoxy)methyl]-4-({[(1R,2S)-2-phenylcyclopropyl]amino}methyl)piperidin-1-yl]methyl}cyclopropanecarboxylic acid]", "IC50": "< 100"},
      {"smiles": "O=C(O)C1(CN2CCC(CN[C@@H]3C[C@H]3c3ccccc3)(COc3cccc(F)c3)CC2)CCC1", "note": "[Example 78, 1-{[4-[(3-fluorophenoxy)methyl]-4-({[(1R,2S)-2-phenylcyclopropyl]amino}methyl)piperidin-1-yl]methyl}cyclobutanecarboxylic acid]", "IC50": "< 100"},
      {"smiles": "N#Cc1ccccc1OCC1(CN[C@@H]2C[C@H]2c2ccccc2)CCN(CC2(C(=O)O)CC2)CC1", "note": "[Example 79, 1-{[4-[(2-cyanophenoxy)methyl]-4-({[(1R,2S)-2-phenylcyclopropyl]amino}methyl)piperidin-1-yl]methyl}cyclopropanecarboxylic acid]", "IC50": "< 100"},
      {"smiles": "N#Cc1cccc(OCC2(CN[C@@H]3C[C@H]3c3ccccc3)CCN(CC3(C(=O)O)CC3)CC2)c1", "note": "[Example 80, 1-{[4-[(3-cyanophenoxy)methyl]-4-({[(1R,2S)-2-phenylcyclopropyl]amino}methyl)piperidin-1-yl]methyl}cyclopropanecarboxylic acid]", "IC50": "< 100"},
      {"smiles": "N#Cc1ccc(OCC2(CN[C@@H]3C[C@H]3c3ccccc3)CCN(CC3(C(=O)O)CC3)CC2)cc1", "note": "[Example 81, 1-{[4-[(4-cyanophenoxy)methyl]-4-({[(1R,2S)-2-phenylcyclopropyl]amino}methyl)piperidin-1-yl]methyl}cyclopropanecarboxylic acid]", "IC50": "< 100"},
      {"smiles": "N#Cc1ccc(OCC2(CN[C@@H]3C[C@H]3c3ccccc3)CCN(CC3(C(=O)O)CC3)CC2)c(F)c1", "note": "[Example 82, 1-{[4-[(4-cyano-2-fluorophenoxy)methyl]-4-({[(1R,2S)-2-phenylcyclopropyl]amino}methyl)piperidin-1-yl]methyl}cyclopropanecarboxylic acid]", "IC50": "< 100"},
      {"smiles": "N#Cc1ccccc1OCC1(CN[C@@H]2C[C@H]2c2ccccc2)CCN(CC2(C(=O)O)CCC2)CC1", "note": "[Example 83, 1-{[4-[(2-cyanophenoxy)methyl]-4-({[(1R,2S)-2-phenylcyclopropyl]amino}methyl)piperidin-1-yl]methyl}cyclobutanecarboxylic acid]", "IC50": "< 100"},
      {"smiles": "N#Cc1cccc(OCC2(CN[C@@H]3C[C@H]3c3ccccc3)CCN(CC3(C(=O)O)CCC3)CC2)c1", "note": "[Example 84, 1-{[4-[(3-cyanophenoxy)methyl]-4-({[(1R,2S)-2-phenylcyclopropyl]amino}methyl)piperidin-1-yl]methyl}cyclobutanecarboxylic acid]", "IC50": "< 100"},
      {"smiles": "N#Cc1ccc(OCC2(CN[C@@H]3C[C@H]3c3ccccc3)CCN(CC3(C(=O)O)CCC3)CC2)cc1", "note": "[Example 85, 1-{[4-[(4-cyanophenoxy)methyl]-4-({[(1R,2S)-2-phenylcyclopropyl]amino}methyl)piperidin-1-yl]methyl}cyclobutanecarboxylic acid]", "IC50": "< 100"},
      {"smiles": "N#Cc1ccc(OCC2(CN[C@@H]3C[C@H]3c3ccccc3)CCN(CC3(C(=O)O)CCC3)CC2)c(F)c1", "note": "[Example 86, 1-{[4-[(4-cyano-2-fluorophenoxy)methyl]-4-({[(1R,2S)-2-phenylcyclopropyl]amino}methyl)piperidin-1-yl]methyl}cyclobutanecarboxylic acid]", "IC50": "< 100"},
      {"smiles": "O=C(O)C1(CN2CCC(CN[C@@H]3C[C@H]3c3ccccc3)(COc3ccc(F)cn3)CC2)CC1", "note": "[Example 87, 1-{[4-{[(5-fluoropyridin-2-yl)oxy]methyl}-4-({[(1R,2S)-2-phenylcyclopropyl]amino}methyl)piperidin-1-yl]methyl}cyclopropanecarboxylic acid]", "IC50": "< 100"},
      {"smiles": "O=C(O)C1(CN2CCC(CN[C@@H]3C[C@H]3c3ccccc3)(COc3ncc(F)cn3)CC2)CC1", "note": "[Example 88, 1-{[4-{[(5-fluoropyrimidin-2-yl)oxy]methyl}-4-({[(1R,2S)-2-phenylcyclopropyl]amino}methyl)piperidin-1-yl]methyl}cyclopropanecarboxylic acid]", "IC50": "< 100"},
      {"smiles": "O=C(O)C1(CN2CCC(CN[C@@H]3C[C@H]3c3ccccc3)(COc3ncccc3F)CC2)CC1", "note": "[Example 89, 1-{[4-{[(3-fluoropyridin-2-yl)oxy]methyl}-4-({[(1R,2S)-2-phenylcyclopropyl]amino}methyl)piperidin-1-yl]methyl}cyclopropanecarboxylic acid]", "IC50": "< 100"},
      {"smiles": "CNC(=O)c1ccc(OCC2(CN[C@@H]3C[C@H]3c3ccccc3)CCN(CC3(C(=O)O)CC3)CC2)cn1", "note": "[Example 90, 1-{[4-[({6-[(methylamino)carbonyl]pyridin-3-yl}oxy)methyl]-4-({[(1R,2S)-2-phenylcyclopropyl]amino}methyl)piperidin-1-yl]methyl}cyclopropanecarboxylic acid]", "IC50": "< 100"},
      {"smiles": "CNC(=O)c1cccc(OCC2(CN[C@@H]3C[C@H]3c3ccccc3)CCN(CC3(C(=O)O)CC3)CC2)n1", "note": "[Example 91, 1-{[4-[({6-[(methylamino)carbonyl]pyridin-2-yl}oxy)methyl]-4-({[(1R,2S)-2-phenylcyclopropyl]amino}methyl)piperidin-1-yl]methyl}cyclopropanecarboxylic acid]", "IC50": "< 100"},
      {"smiles": "O=C(O)C1(CN2CCC(CN[C@@H]3C[C@H]3c3ccccc3)(COCC3CCC3)CC2)CCC1", "note": "[Example 93, 1-{[4-[(cyclobutylmethoxy)methyl]-4-({[(1R,2S)-2-phenylcyclopropyl]amino}methyl)piperidin-1-yl]methyl}cyclobutanecarboxylic acid]", "IC50": "< 100"},
      {"smiles": "O=C(O)C1(CN2CCC(CN[C@@H]3C[C@H]3c3ccccc3)(COC3CCCCC3)CC2)CC1", "note": "[Example 94, 1-{[4-[(cyclohexyloxy)methyl]-4-({[(1R,2S)-2-phenylcyclopropyl]amino}methyl)piperidin-1-yl]methyl}cyclopropanecarboxylic acid]", "IC50": "< 100"},
      {"smiles": "O=C(O)C1(CN2CCC(CN[C@@H]3C[C@H]3c3ccccc3)(COC3CCCCC3)CC2)CCC1", "note": "[Example 95, 1-{[4-[(cyclohexyloxy)methyl]-4-({[(1R,2S)-2-phenylcyclopropyl]amino}methyl)piperidin-1-yl]methyl}cyclobutanecarboxylic acid]", "IC50": "< 100"},
      {"smiles": "O=C(O)C1(CN2CCC(CN[C@@H]3C[C@H]3c3ccccc3)(Cc3ccc(F)cn3)CC2)CC1", "note": "[Example 96, 1-{[4-[(5-fluoropyridin-2-yl)methyl]-4-({[(1R,2S)-2-phenylcyclopropyl]amino}methyl)piperidin-1-yl]methyl}cyclopropanecarboxylic acid]", "IC50": "< 100"},
      {"smiles": "O=C(O)C1(CN2CCC(CN[C@@H]3C[C@H]3c3ccccc3)(Cc3ccc(F)cn3)CC2)CCC1", "note": "[Example 97, 1-{[4-[(5-fluoropyridin-2-yl)methyl]-4-({[(1R,2S)-2-phenylcyclopropyl]amino}methyl)piperidin-1-yl]methyl}cyclobutanecarboxylic acid]", "IC50": "< 100"},
      {"smiles": "COc1ccc(CC2(CN[C@@H]3C[C@H]3c3ccccc3)CCN(CC3(C(=O)O)CC3)CC2)cc1", "note": "[Example 98, 1-{[4-(4-methoxybenzyl)-4-({[(1R,2S)-2-phenylcyclopropyl]amino}methyl)piperidin-1-yl]methyl}cyclopropanecarboxylic acid]", "IC50": "< 100"},
      {"smiles": "COc1ccc(CC2(CN[C@@H]3C[C@H]3c3ccccc3)CCN(CC3(C(=O)O)CCC3)CC2)cc1", "note": "[Example 99, 1-{[4-(4-methoxybenzyl)-4-({[(1R,2S)-2-phenylcyclopropyl]amino}methyl)piperidin-1-yl]methyl}cyclobutanecarboxylic acid]", "IC50": "< 100"},
      {"smiles": "COCC1(CN[C@@H]2C[C@H]2c2ccccc2)CCN(C(=O)[C@H]2CC[C@H](CO)CC2)CC1", "note": "[Example 100, (trans-4-{[4-(methoxymethyl)-4-({[(1R,2S)-2-phenylcyclopropyl]amino}methyl)piperidin-1-yl]carbonyl}cyclohexyl)methanol]", "IC50": "< 100"},
      {"smiles": "COCC1(CN[C@@H]2C[C@H]2c2ccccc2)CCN(C(=O)[C@H]2CC[C@@H](CO)CC2)CC1", "note": "[Example 101, (cis-4-{[4-(methoxymethyl)-4-({[(1R,2S)-2-phenylcyclopropyl]amino}methyl)piperidin-1-yl]carbonyl}cyclohexyl)methanol]", "IC50": "< 100"},
      {"smiles": "COCC1(CN[C@@H]2C[C@H]2c2ccccc2)CCN(C(=O)C2(C#N)CC2)CC1", "note": "[Example 102, 1-{[4-(methoxymethyl)-4-({[(1R,2S)-2-phenylcyclopropyl]amino}methyl)piperidin-1-yl]carbonyl}cyclopropanecarbonitrile]", "IC50": "< 100"},
      {"smiles": "COCC1(CN[C@@H]2C[C@H]2c2ccccc2)CCN(C(=O)c2cnn(CCO)c2)CC1", "note": "[Example 103, 2-(4-{[4-(methoxymethyl)-4-({[(1R,2S)-2-phenylcyclopropyl]amino}methyl)piperidin-1-yl]carbonyl}-1H-pyrazol-1-yl)ethanol]", "IC50": "< 100"}
    ]}
  ]
}
